Values after ≈ are worked out from the molar mass of the structure shown. Read-outs that look alike come from different tables or passages of the source.
Key:
[1] = system: genotype 1a H-77 replicon; test: HCV-1a replicon potency in RLuc-1 cells, bioluminescence; type: cell-based; settings: for HCV-1a Replicon Selectivity Index: CC50/EC50, genotype 1a replicon
genotype 1b replicon = test: HCV genotype 1b replicon potency in R-luc cells, bioluminescence; type: cell-based; settings: 72 hours, average of two or more independent experiments ± std. dev, read-out: Stable replicon cell lines EC50 (μM) Genotype1b (R-luc)
[2] = system: genotype 1a H-77 replicon; test: HCV genotype 1a replicon potency in GLuc-1 cells, bioluminescence; type: cell-based; settings: 72 hours, average of two or more independent experiments ± std. dev, read-out: Stable replicon cell lines EC50 (μM) Genotype 1a (Gluc-1)
[3] = system: infectious genotype 2a virus (a J6/JFH-1 chimera); test: JFH-1 HCV-2a virus assay in Lunet-CD81 cells, NS3 expression readout; type: cell-based
[4] = Cytotoxicity in G-luc replicon cells, Promega CellTiter-Glo cell viability assay; settings: G-luc (GLuc-1) HCV genotype 1a H-77 replicon cells
[5] = Cytotoxicity in HCV-1a replicon cells, Promega CellTiter-Glo cell viability assay
HIV-1 strain IIIB = test: Inhibition of replication of HIV-1 (IIIB strain) in MT-4 cells, MTT assay; type: cell-based; settings: Human immunodeficiency virus 1, IIIB, MT4, 120 h, read-out: EC50 (μM) HIV-1 (IIIB)
HIV-2 strain (ROD) = test: Inhibition of replication of HIV-2 (ROD strain) in MT-4 cells, MTT assay; type: cell-based; settings: Human immunodeficiency virus 2, MT4, 120 h, read-out: EC50 (μM) HIV-2 (ROD)
in vitro [6] = settings: human
poliovirus (PV type 1) = test: microbe, parasite or virus in culture; type: cell-based; settings: Enterovirus C, read-out: PV-1 EC50
poliovirus (PV type 2) = test: microbe, parasite or virus in culture; type: cell-based; settings: Enterovirus C, read-out: PV-2 EC50
poliovirus (PV type 3) = test: microbe, parasite or virus in culture; type: cell-based; settings: Enterovirus C, read-out: PV-3 EC50
in vitro [7] = settings: African green monkey, PV CC50
in vitro [8] = settings: human, PV CC50
hRV-2 = test: Rhinovirus type 2 antiviral assay in Hela Rh cells, MTS readout; type: cell-based, Human rhinovirus; settings: Rhinovirus A, HRV2, HeLa Rh, Hela Rh cells; read-out: hRV-2 EC50
hRV-9 = test: Rhinovirus type 9 antiviral assay in Hela Rh cells, MTS readout; type: cell-based, Human rhinovirus; settings: Human rhinovirus sp., HRV9, HeLa Rh, Hela Rh cells; read-out: hRV-9 EC50
hRV-14 = test: Rhinovirus type 14 antiviral assay in Hela Rh cells, MTS readout; type: cell-based, Human rhinovirus; settings: Rhinovirus B, HRV14, HeLa Rh, Hela Rh cells; read-out: hRV-14 EC50
hRV-15 = test: Rhinovirus type 15 antiviral assay in Hela Rh cells, MTS readout; type: cell-based, Human rhinovirus; settings: Human rhinovirus sp., HRV15, HeLa Rh, Hela Rh cells; read-out: hRV-15 EC50
hRV-29 = test: Rhinovirus type 29 antiviral assay in Hela Rh cells, MTS readout; type: cell-based; settings: Human rhinovirus sp., HRV29, HeLa Rh, Hela Rh cells; read-out: hRV-29 EC50
hRV-39 = test: Rhinovirus type 39 antiviral assay in Hela Rh cells, MTS readout; type: cell-based, Human rhinovirus; settings: Human rhinovirus sp., HRV39, HeLa Rh, Hela Rh cells; read-out: hRV-39 EC50
hRV-41 = test: Rhinovirus type 41 antiviral assay in Hela Rh cells, MTS readout; type: cell-based, Human rhinovirus; settings: Human rhinovirus sp., HRV41, HeLa Rh, Hela Rh cells; read-out: hRV-41 EC50
hRV-42 = test: Rhinovirus type 42 antiviral assay in Hela Rh cells, MTS readout; type: cell-based, Human rhinovirus; settings: Human rhinovirus sp., HRV42, HeLa Rh, Hela Rh cells; read-out: hRV-42 EC50
hRV-45 = test: Rhinovirus type 45 antiviral assay in Hela Rh cells, MTS readout; type: cell-based, Human rhinovirus; settings: Human rhinovirus sp., HRV45, HeLa Rh, Hela Rh cells; read-out: hRV-45 EC50
hRV-63 = test: Rhinovirus type 63 antiviral assay in Hela Rh cells, MTS readout; type: cell-based, Human rhinovirus; settings: Human rhinovirus sp., HRV63, HeLa Rh, Hela Rh cells; read-out: hRV-63 EC50
hRV-70 = test: Rhinovirus type 70 antiviral assay in Hela Rh cells, MTS readout; type: cell-based, Human rhinovirus; settings: Human rhinovirus sp., HRV70, HeLa Rh, Hela Rh cells; read-out: hRV-70 EC50
hRV-72 = test: Rhinovirus type 72 antiviral assay in Hela Rh cells, MTS readout; type: cell-based, Human rhinovirus; settings: Human rhinovirus sp., HRV72, HeLa Rh, Hela Rh cells; read-out: hRV-72 EC50
hRV-85 = test: Rhinovirus type 85 antiviral assay in Hela Rh cells, MTS readout; type: cell-based, Human rhinovirus; settings: Human rhinovirus sp., HRV85, HeLa Rh, Hela Rh cells; read-out: hRV-85 EC50
hRV-86 = test: Rhinovirus type 86 antiviral assay in Hela Rh cells, MTS readout; type: cell-based, Human rhinovirus; settings: Human rhinovirus sp., HRV86, HeLa Rh, Hela Rh cells; read-out: hRV-86 EC50
[9] = Cytostatic/cytotoxic effect in Hela Rh cells (rhinovirus methodology, MTS); settings: human, CC50, Hela Rh cells
RLuc-1 cells = test: Cytotoxicity in HCV-1a replicon cells, Promega CellTiter-Glo cell viability assay; settings: read-out: HCV-1a Replicon CC50; replicon cells, 72 hours, CellTiter-Glo
[10] = Hepatitis C virus, 72 h, read-out: HCV-1a Replicon EC50 (μM)
[11] = Hepatitis C virus, 72 h, read-out: Genotype 2a Virus (Lunet-CD81) EC50 (μM)
[12] = J6/JFH-1 chimera, MOI of 1, 72 hours, NS3 readout, read-out: Genotype 2a Virus (Lunet-CD81) EC50
[13] = MT-4 cells, MTT assay, five days after infection, 50% protection from cytopathic effect
[14] = RLuc-1 cells, 72 hours, bioluminescence, read-out: HCV-1a Replicon EC50

CSc1nc2c(N3CCN(C(=O)COc4ccc(Cl)cc4)CC3)nc(N)nc2n1C [Example 428, 1-(4-(2-amino-9-methyl-8-(methylthio)-9H-purin-6-yl)piperazin-1-yl)-2-(4-chlorophenoxy)ethanone]
HCV-1a Replicon Selectivity Index [1]: >888
EC50 [1, 10]: 0.05 µM
EC50 (genotype 1b replicon; Hepatitis C virus): 0.005 ± 0.002 µM
EC50 ([2]; Hepatitis C virus): 0.056 ± 0.002 µM
EC50 [3, 11]: > 50 µM
CC50 at 72 h [4]: > 50000 nM
CC50 at 72 h [5]: > 44400 nM

CCOc1nc(N)nc2sc(-c3ccc(F)cc3)cc12 [Example 363, 4-ethoxy-6-(4-fluorophenyl)thieno[2,3-d]pyrimidin-2-amine]
EC50 (HIV-1 strain IIIB): ≥ 432 µM
EC50 (HIV-2 strain (ROD)): ≥ 432 µM
melting point: 142 °C
CC50 (in vitro [6]): 432000 nM

Nc1nc(N2CCN(C(=O)COc3ccc(Cl)cc3)CC2)c2nc(C3CC3)[nH]c2n1 [Example 398, 1-(4-(2-amino-8-cyclopropyl-9H-purin-6-yl)piperazin-1-yl)-2-(4-chlorophenoxy)ethanone]
HCV-1a Replicon Selectivity Index [1]: >143
EC50 [1, 10]: 0.3 µM
EC50 (genotype 1b replicon; Hepatitis C virus): 0.192 ± 0.008 µM
EC50 ([2]; Hepatitis C virus): 0.274 ± 0.04 µM
EC50 [3, 11]: 29 µM
CC50 at 72 h [4]: > 50000 nM
CC50 at 72 h [5]: > 44400 nM

Nc1nc(N2CCN(C(=O)COc3ccc(Cl)cc3)CC2)c2nc(C3CC3)sc2n1 [Example 119, 5-amino-2-cyclopropyl-7-[4-(4-chlorophenoxyacetyl)piperazin-1-yl]-thiazolo[5,4-d]pyrimidine]
HCV-1a Replicon Selectivity Index [1]: >87
EC50 [1, 10]: 0.5 µM
EC50 (genotype 1b replicon; Hepatitis C virus): 0.341 ± 0.024 µM
EC50 ([2]; Hepatitis C virus): 0.422 ± 0.104 µM
EC50 [3, 11]: > 50 µM
EC50 (poliovirus (PV type 1); HeLa): 24.1 µg/mL (≈ 54.1 µM)
EC50 (poliovirus (PV type 1); Vero): 0.34 µg/mL (≈ 0.764 µM)
EC50 (poliovirus (PV type 2); HeLa): 1.21 µg/mL (≈ 2.72 µM)
EC50 (poliovirus (PV type 2); Vero): 0.33 µg/mL (≈ 0.742 µM)
EC50 (poliovirus (PV type 3); HeLa): > 50 µg/mL
EC50 (poliovirus (PV type 3); Vero): 12.5 µg/mL (≈ 28 µM)
CC50 (in vitro [7]): > 150 µg/mL
CC50 (in vitro [8]): > 50 µg/mL
CC50 at 72 h [4]: > 50000 nM
CC50 at 72 h [5]: > 44400 nM

Cc1nc2c(N3CCN(C(=O)COc4ccc(Cl)cc4)CC3)nc(N)nc2[nH]1 [Example 400, 1-(4-(2-amino-8-methyl-9H-purin-6-yl)piperazin-1-yl)-2-(4-chlorophenoxy)ethanone]
HCV-1a Replicon Selectivity Index [1]: >164
EC50 [1, 10]: 0.3 µM
EC50 (genotype 1b replicon; Hepatitis C virus): 0.188 ± 0.012 µM
EC50 ([2]; Hepatitis C virus): 0.125 ± 0.035 µM
EC50 [3, 11]: > 50 µM
CC50 at 72 h [4]: > 50000 nM
CC50 at 72 h [5]: > 44400 nM

C[C@@]1(O)[C@H](O)[C@@H](CO)O[C@H]1n1cnc2c(N)ncnc21 [2′CMA]
EC50 (genotype 1b replicon): 0.3 ± 0.02 µM
EC50 [2]: 0.23 ± 0.3 µM
EC50 [3, 12]: 0.3 ± 0.03 µM

Nc1nc(N2CCN(C(=O)COc3ccc(Br)cc3)CC2)c2nc(CCc3ccc(F)cc3)sc2n1 [Example 52, 1-(4-(5-amino-2-(4-fluorophenethyl)thiazolo[5,4-d]pyrimidin-7-yl)piperazin-1-yl)-2-(4-bromophenoxy)ethanone]
EC50 (HIV-1 strain IIIB; [13]): 2.71 µM
EC50 (HIV-2 strain (ROD); [13]): > 95.7 µM
HCV-1a Replicon Selectivity Index [1]: >1.3
EC50 [1, 10]: 35.3 µM
EC50 (poliovirus (PV type 1); HeLa): 0.39 µg/mL (≈ 0.682 µM)
EC50 (poliovirus (PV type 1); Vero): 0.12 µg/mL (≈ 0.21 µM)
EC50 (poliovirus (PV type 2); HeLa): 0.38 µg/mL (≈ 0.665 µM)
EC50 (poliovirus (PV type 2); Vero): 0.1 µg/mL (≈ 0.175 µM)
EC50 (poliovirus (PV type 3); HeLa): > 50 µg/mL
EC50 (poliovirus (PV type 3); Vero): 0.49 µg/mL (≈ 0.857 µM)
EC50 (hRV-2): 15.7 µg/mL (≈ 27.5 µM)
EC50 (hRV-9): > 50 µg/mL
EC50 (hRV-14): > 50 µg/mL
EC50 (hRV-15): > 50 µg/mL
EC50 (hRV-29): > 50 µg/mL
EC50 (hRV-39): 30.7 µg/mL (≈ 53.7 µM)
EC50 (hRV-41): > 50 µg/mL
EC50 (hRV-42): > 50 µg/mL
EC50 (hRV-45): > 50 µg/mL
EC50 (hRV-63): > 50 µg/mL
EC50 (hRV-70): > 50 µg/mL
EC50 (hRV-72): > 50 µg/mL
EC50 (hRV-85): 21.9 µg/mL (≈ 38.4 µM)
EC50 (hRV-86): > 50 µg/mL
CC50 (in vitro [6]): 95700 nM
CC50 (in vitro [7]): 111 µg/mL (≈ 195 µM)
CC50 (in vitro [8]): > 50 µg/mL
CC50 [9]: > 50 µg/mL
CC50 at 72 h [5]: > 44400 nM

Nc1nc(NCc2ccccc2)c2cc(-c3ccc(F)cc3)sc2n1 [Example 327, 2-amino-4-N-benzylamino-6-(4-fluorophenyl)-thieno[2,3-d]pyrimidine]
EC50 [1, 14]: 38.6 µM
CC50 (RLuc-1 cells): 23200 nM

Nc1nc(N2CCN(C(=O)COc3ccccc3)CC2)c2nc(-c3ccc(F)cc3)[nH]c2n1 [Example 401, 1-(4-(2-amino-8-(4-fluorophenyl)-9H-purin-6-yl)piperazin-1-yl)-2-phenoxyethanone]
HCV-1a Replicon Selectivity Index [1]: 26.5
EC50 [1, 10]: 0.8 µM
EC50 (genotype 1b replicon; Hepatitis C virus): 0.081 ± 0.041 µM
EC50 ([2]; Hepatitis C virus): 0.059 ± 0.008 µM
EC50 [3, 11]: 15.4 µM
CC50 at 72 h [4]: > 50000 nM
CC50 at 72 h [5]: 20400 nM

CCCc1nc2c(N3CCN(C(=O)COc4ccc(Cl)cc4)CC3)nc(N)nc2[nH]1 [Example 397, 1-(4-(2-amino-8-propyl-9H-purin-64)piperazin-1-yl)-2-(4-chlorophenoxy)ethanone]
EC50 [1, 14]: 1.1 µM
EC50 (genotype 1b replicon): 0.14 ± 0.11 µM
EC50 [2]: 0.181 ± 0.108 µM
EC50 [3, 12]: 31.2 µM
CC50 (RLuc-1 cells): > 44400 nM
